The subject of test [1] is Drosophila melanogaster. Briefly: Insecticidal activity against Drosophila melanogaster assessed as mortality at 400 ug/ml after 48 hrs. The format is functional, organism-based.
Test [2] has as its system Drosophila melanogaster. Nature of the test: Insecticidal activity against Drosophila melanogaster assessed as mortality at 200 ug/ml after 40 hrs. Type of test: functional, organism-based.
Test [3] has as its system Drosophila melanogaster. Briefly: Insecticidal activity against Drosophila melanogaster after 40 hrs. The format is functional.

Each structure is given as a SMILES string. Converted amounts (≈) assume the structure as drawn. The source made the active and inactive calls. The rule behind the calls is not given here. Starred links: 1 amine or outer side, 2 acyl side, 3 side chain; linkers in the order of their positions; H or OH if unused. Non-standard residues stand in square brackets, D forms with d. Residues, ends and D or L forms follow the SMILES beside them. NMeI = CC[C@H](C)[C@H](NC)C(=O)O; X1 = C=CC[C@H](O[*:1])C(=O)[*:2]; Hica(2S) = CC(C)C[C@H](O)C(=O)O; NMeA = CN[C@@H](C)C(=O)O; βAla = NCCC(=O)O

Regarding `CC[C@H](C)[C@@H]1NC(=O)[C@@H]2CCCN2C(=O)[C@H](CC(C)C)OC(=O)CCNC(=O)[C@H](C)N(C)C(=O)[C@H]([C@@H](C)CC)N(C)C1=O` (cyclo(I[NMeI][NMeA][βAla][Hica(2S)]P)), in the test with Drosophila melanogaster [1], the outcome was inactive.

On to `C=CCC1OC(=O)CCNC(=O)[C@H](C)N(C)C(=O)[C@H]([C@@H](C)CC)N(C)C(=O)[C@H]([C@@H](C)CC)NC(=O)[C@@H]2C(C)CCN2C1=O` (stereo not given in full) [DESTRUXIN A5], for which the outcome in the test with Drosophila melanogaster [2] was Active. Moreover, the LC50 with Drosophila melanogaster [3] is 52 mg/L (≈ 85.8 µM).

Take `C=CC[C@@H]1OC(=O)CCNC(=O)[C@H](C)N(C)C(=O)[C@H]([C@@H](C)CC)N(C)C(=O)[C@H]([C@@H](C)CC)NC(=O)[C@@H]2CCCN2C1=O` [destruxin A4] (cyclo(I[NMeI][NMeA][βAla][X1]P)): the outcome with Drosophila melanogaster [2] was Active. This compound registered an LC50 in the test with Drosophila melanogaster [3] of 41 mg/L (≈ 69.3 µM).

The values above are taken from ChEMBL document CHEMBL1158210, “New Destruxins from the Entomopathogenic Fungus Aschersonia sp” (1996).
